Values quoted from earlier work in article PMC9923514 (Journal of chemical information and modeling, 2022).

Experiments:
[1] = target: ZIKV NS5 RdRp (Zika virus, UniProt A0A024B7W1); conditions: for IC50: read-out: NS5 RdRp IC50
[2] = target: ZIKV NS2B-NS3pro (Zika virus, UniProt A0A024B7W1); conditions: read-out: NS2B-NS3pro IC50; allosteric inhibitor
ZIKV NS2B-NS3pro, sequence (A0A024B7W1 1503-1680): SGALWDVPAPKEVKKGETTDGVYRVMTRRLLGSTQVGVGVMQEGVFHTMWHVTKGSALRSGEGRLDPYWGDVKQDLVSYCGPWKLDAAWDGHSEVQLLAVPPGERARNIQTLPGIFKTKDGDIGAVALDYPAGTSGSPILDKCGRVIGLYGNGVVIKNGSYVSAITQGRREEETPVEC
ZIKV NS2B-NS3pro, sequence (A0A024B7W1 1373-1502): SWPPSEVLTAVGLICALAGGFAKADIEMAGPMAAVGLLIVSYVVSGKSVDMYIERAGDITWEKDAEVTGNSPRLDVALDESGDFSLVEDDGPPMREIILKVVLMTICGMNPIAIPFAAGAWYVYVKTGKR

ZIKV NS5 RdRp, sequence (A0A024B7W1 2521-3423): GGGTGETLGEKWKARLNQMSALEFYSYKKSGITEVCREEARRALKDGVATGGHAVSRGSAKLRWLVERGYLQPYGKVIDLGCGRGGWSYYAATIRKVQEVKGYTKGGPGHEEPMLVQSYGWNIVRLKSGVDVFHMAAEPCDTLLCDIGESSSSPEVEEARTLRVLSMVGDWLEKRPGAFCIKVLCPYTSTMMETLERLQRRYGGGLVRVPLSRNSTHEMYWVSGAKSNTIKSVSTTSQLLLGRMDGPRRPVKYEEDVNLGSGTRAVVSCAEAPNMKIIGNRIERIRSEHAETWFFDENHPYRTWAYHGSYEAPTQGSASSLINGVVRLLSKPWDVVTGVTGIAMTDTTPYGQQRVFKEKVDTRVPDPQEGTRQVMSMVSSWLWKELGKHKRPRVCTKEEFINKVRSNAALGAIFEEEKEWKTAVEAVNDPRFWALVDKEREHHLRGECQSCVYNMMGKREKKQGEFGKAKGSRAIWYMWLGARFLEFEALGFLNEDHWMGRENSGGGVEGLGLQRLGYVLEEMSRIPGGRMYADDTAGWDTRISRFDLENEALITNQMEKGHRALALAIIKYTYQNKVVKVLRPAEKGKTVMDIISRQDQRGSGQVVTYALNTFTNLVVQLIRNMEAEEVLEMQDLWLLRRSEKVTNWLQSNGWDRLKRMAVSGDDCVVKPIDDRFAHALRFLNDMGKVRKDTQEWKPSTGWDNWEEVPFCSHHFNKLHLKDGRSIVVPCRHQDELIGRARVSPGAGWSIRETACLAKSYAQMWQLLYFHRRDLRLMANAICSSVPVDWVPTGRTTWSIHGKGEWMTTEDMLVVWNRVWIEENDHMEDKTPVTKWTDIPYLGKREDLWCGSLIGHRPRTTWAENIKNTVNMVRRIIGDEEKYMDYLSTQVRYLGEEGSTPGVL

Row | Structure (SMILES) | IC50 [1] [µM] | also measured
1 | O=C(NC(=S)Nc1ccc(N2CCN(C(=O)c3cccs3)CC2)cc1)c1sc2ccccc2c1Cl [TBP, 3-chloro-N-[({4-[4-(2-thienylcarbonyl)-1-piperazinyl]phenyl}amino)carbonothioyl]-1-benzothiophene-2-carboxamide] | 0.094 | 
2 | CCCCCOCc1c(Nc2ccc(S(N)(=O)=O)cc2)nc(N2CCOCC2)nc1C(=O)NCCOc1ccccc1 [2-morpholino-5-((pentyloxy)methyl)-N-(2-phenoxyethyl)-6-((4-sulfamoylphenyl)amino)pyrimidine-4-carboxamide] | 2.4 | 
3 | O[C@H]1[C@H]2c3cc4c(cc3CN3CCC(=C[C@@H]1O)[C@H]23)OCO4 [lycorine] |  | NS5 RdRp inhibition ([1]; at 50 μM): 60%
4 | Nc1cc(N)c(N=Nc2ccc(S(=O)(=O)Nc3nccs3)cc2)cc1N=Nc1ccc(S(=O)(=O)Nc2nccs2)cc1 [NSC86314] |  | IC50 [2]: 1.12 ± 0.11 µM
